What follows are compounds tested on Caco-2 (assay: Growth inhibition of human Caco2 cells at 10 uM after 48 hrs by SRB assay). Details: Caco-2, 48 h, read-out: GI.
Assay type: functional

| Compound | inhibition of growth at 10 µM |
| --- | --- |
| O=C1C(=O)N(CCn2cc(CN3C(=O)C(=O)c4cc([N+](=O)[O-])ccc43)nn2)c2ccc(F)cc21 | 0% |
| O=C1C(=O)N(CCn2cc(CN3C(=O)C(=O)c4cc(F)ccc43)nn2)c2ccc(F)cc21 | 0% |
| O=C1C(=O)N(CCn2cc(CN3C(=O)C(=O)c4cc(F)ccc43)nn2)c2ccccc21 | 0% |

The compounds below were run on A549 (assay: Growth inhibition of human A549 cells after 48 hrs by SRB assay). Details: not given.
Assay type: functional, cell-based

| Compound | growth inhibition (GI) |
| --- | --- |
| O=C1C(=O)N(CCn2cc(CN3C(=O)C(=O)c4cc([N+](=O)[O-])ccc43)nn2)c2ccc(F)cc21 | Dose-dependent effect |
| O=C1C(=O)N(CCn2cc(CN3C(=O)C(=O)c4cc(F)ccc43)nn2)c2ccc(F)cc21 | Dose-dependent effect |
| O=C1C(=O)N(CCn2cc(CN3C(=O)C(=O)c4cc(F)ccc43)nn2)c2ccccc21 | Dose-dependent effect |

Same assay, conditions: A549, 48 h

| IC50 | Compound |
| --- | --- |
| 93.2 µM | O=C1C(=O)N(CCn2cc(CN3C(=O)C(=O)c4cc([N+](=O)[O-])ccc43)nn2)c2ccc(F)cc21 |
| 90.7 µM | O=C1C(=O)N(CCn2cc(CN3C(=O)C(=O)c4cc(F)ccc43)nn2)c2ccc(F)cc21 |
| 38.9 µM | O=C1C(=O)N(CCn2cc(CN3C(=O)C(=O)c4cc(F)ccc43)nn2)c2ccccc21 |

Each compound was assayed on PC-3 (assay: Growth inhibition of human PC3 cells at 100 uM after 48 hrs by SRB assay). Details: PC-3, 48 h, read-out: GI.
Assay type: functional

| Compound | inhibition of growth at 100 µM |
| --- | --- |
| O=C1C(=O)N(CCn2cc(CN3C(=O)C(=O)c4cc([N+](=O)[O-])ccc43)nn2)c2ccc(F)cc21 | 33% |
| O=C1C(=O)N(CCn2cc(CN3C(=O)C(=O)c4cc(F)ccc43)nn2)c2ccc(F)cc21 | 30% |
| O=C1C(=O)N(CCn2cc(CN3C(=O)C(=O)c4cc(F)ccc43)nn2)c2ccccc21 | 100% |

Each compound was assayed on Caco-2 (assay: Growth inhibition of human Caco2 cells at 50 uM after 48 hrs by SRB assay). Details: Caco-2, 48 h, read-out: GI.
Assay type: functional

| Compound | inhibition of growth at 50 µM |
| --- | --- |
| O=C1C(=O)N(CCn2cc(CN3C(=O)C(=O)c4cc([N+](=O)[O-])ccc43)nn2)c2ccc(F)cc21 | 0% |
| O=C1C(=O)N(CCn2cc(CN3C(=O)C(=O)c4cc(F)ccc43)nn2)c2ccc(F)cc21 | 0% |
| O=C1C(=O)N(CCn2cc(CN3C(=O)C(=O)c4cc(F)ccc43)nn2)c2ccccc21 | 1% |

What follows are compounds tested on THP-1 (assay: Growth inhibition of human THP1 cells at 10 uM after 48 hrs by SRB assay). Details: THP-1, 48 h, read-out: GI.
Assay type: functional

| Compound | inhibition of growth at 10 µM |
| --- | --- |
| O=C1C(=O)N(CCn2cc(CN3C(=O)C(=O)c4cc([N+](=O)[O-])ccc43)nn2)c2ccc(F)cc21 | 2% |
| O=C1C(=O)N(CCn2cc(CN3C(=O)C(=O)c4cc(F)ccc43)nn2)c2ccc(F)cc21 | 1% |
| O=C1C(=O)N(CCn2cc(CN3C(=O)C(=O)c4cc(F)ccc43)nn2)c2ccccc21 | 10% |

Each compound was assayed on PC-3 (assay: Growth inhibition of human PC3 cells at 50 uM after 48 hrs by SRB assay). Details: PC-3, 48 h, read-out: GI.
Assay type: functional

| Compound | inhibition of growth at 50 µM |
| --- | --- |
| O=C1C(=O)N(CCn2cc(CN3C(=O)C(=O)c4cc([N+](=O)[O-])ccc43)nn2)c2ccc(F)cc21 | 11% |
| O=C1C(=O)N(CCn2cc(CN3C(=O)C(=O)c4cc(F)ccc43)nn2)c2ccc(F)cc21 | 10% |
| O=C1C(=O)N(CCn2cc(CN3C(=O)C(=O)c4cc(F)ccc43)nn2)c2ccccc21 | 98% |

What follows are compounds tested on A549 (assay: Growth inhibition of human A549 cells at 100 uM after 48 hrs by SRB assay). Details: A549, 48 h, read-out: GI.
Assay type: functional

| Compound | inhibition of growth at 100 µM |
| --- | --- |
| O=C1C(=O)N(CCn2cc(CN3C(=O)C(=O)c4cc([N+](=O)[O-])ccc43)nn2)c2ccc(F)cc21 | 64% |
| O=C1C(=O)N(CCn2cc(CN3C(=O)C(=O)c4cc(F)ccc43)nn2)c2ccc(F)cc21 | 62% |
| O=C1C(=O)N(CCn2cc(CN3C(=O)C(=O)c4cc(F)ccc43)nn2)c2ccccc21 | 99% |

What follows are compounds tested on Caco-2 (assay: Growth inhibition of human Caco2 cells at 100 uM after 48 hrs by SRB assay). Details: Caco-2, 48 h, read-out: GI.
Assay type: functional

| Compound | inhibition of growth at 100 µM |
| --- | --- |
| O=C1C(=O)N(CCn2cc(CN3C(=O)C(=O)c4cc([N+](=O)[O-])ccc43)nn2)c2ccc(F)cc21 | 0% |
| O=C1C(=O)N(CCn2cc(CN3C(=O)C(=O)c4cc(F)ccc43)nn2)c2ccc(F)cc21 | 10% |
| O=C1C(=O)N(CCn2cc(CN3C(=O)C(=O)c4cc(F)ccc43)nn2)c2ccccc21 | 22% |

The compounds below were run on PC-3 (assay: Growth inhibition of human PC3 cells at 10 uM after 48 hrs by SRB assay). Details: PC-3, 48 h, read-out: GI.
Assay type: functional

| Compound | inhibition of growth at 10 µM |
| --- | --- |
| O=C1C(=O)N(CCn2cc(CN3C(=O)C(=O)c4cc([N+](=O)[O-])ccc43)nn2)c2ccc(F)cc21 | 2% |
| O=C1C(=O)N(CCn2cc(CN3C(=O)C(=O)c4cc(F)ccc43)nn2)c2ccc(F)cc21 | 0% |
| O=C1C(=O)N(CCn2cc(CN3C(=O)C(=O)c4cc(F)ccc43)nn2)c2ccccc21 | 20% |

These compounds were tested on A549 (assay: Growth inhibition of human A549 cells at 50 uM after 48 hrs by SRB assay). Details: A549, 48 h, read-out: GI.
Assay type: functional

| Compound | inhibition of growth at 50 µM |
| --- | --- |
| O=C1C(=O)N(CCn2cc(CN3C(=O)C(=O)c4cc([N+](=O)[O-])ccc43)nn2)c2ccc(F)cc21 | 22% |
| O=C1C(=O)N(CCn2cc(CN3C(=O)C(=O)c4cc(F)ccc43)nn2)c2ccc(F)cc21 | 23% |
| O=C1C(=O)N(CCn2cc(CN3C(=O)C(=O)c4cc(F)ccc43)nn2)c2ccccc21 | 97% |

These compounds were tested on A549 (assay: Growth inhibition of human A549 cells at 10 uM after 48 hrs by SRB assay). Details: A549, 48 h, read-out: GI.
Assay type: functional

| Compound | inhibition of growth at 10 µM |
| --- | --- |
| O=C1C(=O)N(CCn2cc(CN3C(=O)C(=O)c4cc([N+](=O)[O-])ccc43)nn2)c2ccc(F)cc21 | 7% |
| O=C1C(=O)N(CCn2cc(CN3C(=O)C(=O)c4cc(F)ccc43)nn2)c2ccc(F)cc21 | 5% |
| O=C1C(=O)N(CCn2cc(CN3C(=O)C(=O)c4cc(F)ccc43)nn2)c2ccccc21 | 11% |

Each compound was assayed on PC-3 (assay: Growth inhibition of human PC3 cells after 48 hrs by SRB assay). Details: not given.
Assay type: functional, cell-based

| Compound | growth inhibition (GI) |
| --- | --- |
| O=C1C(=O)N(CCn2cc(CN3C(=O)C(=O)c4cc([N+](=O)[O-])ccc43)nn2)c2ccc(F)cc21 | Dose-dependent effect |
| O=C1C(=O)N(CCn2cc(CN3C(=O)C(=O)c4cc(F)ccc43)nn2)c2ccc(F)cc21 | Dose-dependent effect |
| O=C1C(=O)N(CCn2cc(CN3C(=O)C(=O)c4cc(F)ccc43)nn2)c2ccccc21 | Dose-dependent effect |

Same assay, conditions: PC-3, 48 h

| IC50 | Compound |
| --- | --- |
| 95.2 µM | O=C1C(=O)N(CCn2cc(CN3C(=O)C(=O)c4cc([N+](=O)[O-])ccc43)nn2)c2ccc(F)cc21 |
| > 100 µM | O=C1C(=O)N(CCn2cc(CN3C(=O)C(=O)c4cc(F)ccc43)nn2)c2ccc(F)cc21 |
| 30.1 µM | O=C1C(=O)N(CCn2cc(CN3C(=O)C(=O)c4cc(F)ccc43)nn2)c2ccccc21 |

These compounds were tested on THP-1 (assay: Growth inhibition of human THP1 cells at 50 uM after 48 hrs by SRB assay). Details: THP-1, 48 h, read-out: GI.
Assay type: functional

| Compound | inhibition of growth at 50 µM |
| --- | --- |
| O=C1C(=O)N(CCn2cc(CN3C(=O)C(=O)c4cc([N+](=O)[O-])ccc43)nn2)c2ccc(F)cc21 | 14% |
| O=C1C(=O)N(CCn2cc(CN3C(=O)C(=O)c4cc(F)ccc43)nn2)c2ccc(F)cc21 | 13% |
| O=C1C(=O)N(CCn2cc(CN3C(=O)C(=O)c4cc(F)ccc43)nn2)c2ccccc21 | 96% |

Each compound was assayed on THP-1 (assay: Growth inhibition of human THP1 cells after 48 hrs by SRB assay). Details: not given.
Assay type: functional, cell-based

| Compound | growth inhibition (GI) |
| --- | --- |
| O=C1C(=O)N(CCn2cc(CN3C(=O)C(=O)c4cc([N+](=O)[O-])ccc43)nn2)c2ccc(F)cc21 | Dose-dependent effect |
| O=C1C(=O)N(CCn2cc(CN3C(=O)C(=O)c4cc(F)ccc43)nn2)c2ccc(F)cc21 | Dose-dependent effect |
| O=C1C(=O)N(CCn2cc(CN3C(=O)C(=O)c4cc(F)ccc43)nn2)c2ccccc21 | Dose-dependent effect |

Same assay, conditions: THP-1, 48 h

| IC50 | Compound |
| --- | --- |
| 86.2 µM | O=C1C(=O)N(CCn2cc(CN3C(=O)C(=O)c4cc([N+](=O)[O-])ccc43)nn2)c2ccc(F)cc21 |
| 83.3 µM | O=C1C(=O)N(CCn2cc(CN3C(=O)C(=O)c4cc(F)ccc43)nn2)c2ccc(F)cc21 |
| 39.9 µM | O=C1C(=O)N(CCn2cc(CN3C(=O)C(=O)c4cc(F)ccc43)nn2)c2ccccc21 |

What follows are compounds tested on THP-1 (assay: Growth inhibition of human THP1 cells at 100 uM after 48 hrs by SRB assay). Details: THP-1, 48 h, read-out: GI.
Assay type: functional

| Compound | inhibition of growth at 100 µM |
| --- | --- |
| O=C1C(=O)N(CCn2cc(CN3C(=O)C(=O)c4cc([N+](=O)[O-])ccc43)nn2)c2ccc(F)cc21 | 90% |
| O=C1C(=O)N(CCn2cc(CN3C(=O)C(=O)c4cc(F)ccc43)nn2)c2ccc(F)cc21 | 92% |
| O=C1C(=O)N(CCn2cc(CN3C(=O)C(=O)c4cc(F)ccc43)nn2)c2ccccc21 | 100% |

These compounds were tested on Caco-2 (assay: Growth inhibition of human Caco2 cells after 48 hrs by SRB assay). Details: not given.
Assay type: functional, cell-based

| Compound | growth inhibition (GI) |
| --- | --- |
| O=C1C(=O)N(CCn2cc(CN3C(=O)C(=O)c4cc([N+](=O)[O-])ccc43)nn2)c2ccc(F)cc21 | Dose-dependent effect |
| O=C1C(=O)N(CCn2cc(CN3C(=O)C(=O)c4cc(F)ccc43)nn2)c2ccc(F)cc21 | Dose-dependent effect |
| O=C1C(=O)N(CCn2cc(CN3C(=O)C(=O)c4cc(F)ccc43)nn2)c2ccccc21 | Dose-dependent effect |

Same assay, conditions: Caco-2, 48 h

| IC50 | Compound |
| --- | --- |
| > 100 µM | O=C1C(=O)N(CCn2cc(CN3C(=O)C(=O)c4cc([N+](=O)[O-])ccc43)nn2)c2ccc(F)cc21 |
| > 100 µM | O=C1C(=O)N(CCn2cc(CN3C(=O)C(=O)c4cc(F)ccc43)nn2)c2ccc(F)cc21 |
| > 100 µM | O=C1C(=O)N(CCn2cc(CN3C(=O)C(=O)c4cc(F)ccc43)nn2)c2ccccc21 |

From ChEMBL document CHEMBL2062394, “Azide-alkyne cycloaddition en route to novel 1H-1,2,3-triazole tethered isatin conjugates with in vitro cytotoxic evaluation” (Eur J Med Chem, 2012)
